Laboratory results taken from PMC12744750 (Plant Communications, 2025).
Ends that are not written are not given here.

Key:
ETR1:HA = assay: Co-immunoprecipitation of PLS:GFP and ETR1:HA in N. benthamiana leaves; assay type: binding, Arabidopsis; conditions: Co-IP, western blotting, 3 days after infiltration
Excerpt: To investigate the interaction between the PLS peptide and the ethylene receptor ETR1, two DNA constructs were created by Gateway cloning. The […] PLS gene (without the stop codon) was inserted into the pEarlyGate103 (pEG103) destination vector, which contained the pro35S promoter and a C-terminal GFP tag, to produce a vector containing pro35S::PLS:GFP DNA. The ETR1 cDNA was inserted into the pEarlyGate301 (pEG301) vector to create a pro35S::ETR1:HA construct to express an ETR1 protein with a C-terminal HA tag. pro35S::GFP was used as a control. The primers used to clone ETR1 and PLS are found in supplemental Table 9.
Constructs were transiently expressed in N. benthamiana (tobacco) leaves as described previously ([Voinnet et al., 2003]). Experiments were replicated up to five times. Competent Agrobacterium tumefaciens GV3101 cells were transformed with the desired plasmid containing the gene of interest and injected with a syringe. The plants were approximately 7–10 weeks old; the chosen leaves were healthy and 3–6 cm in length, and 3 to 4 leaves were infiltrated with each construct. […]
SDS–PAGE was used to separate protein fragments. The complexed proteins from the pulldown assay were analyzed on 10%–12% acrylamide gels. […] The horseradish peroxidase conjugated to the secondary antibody was detected using X-ray film. […]

[1] = tested on: root epidermal cells, endomembrane markers; assay: Subcellular localization by confocal microscopy; assay type: cell-based, Arabidopsis
Excerpt: (§1) proPLS::PLS:GFP comprises a 1.5-kb PLS promoter sequence ([Casson et al., 2002]) fused to the PLS open reading frame in pMDC107 (obtained from Prof. P.J. Hussey, Durham University) as a C-terminal GFP translational fusion. The PLS ORF with its 1.5-kb promoter was amplified from the TOPO 2.1 vector, which contained the PLS gene sequence with promoter ([Casson et al., 2002]); the primers used for cloning are listed in supplemental Table 9. pls mutant plants were transformed using the method of [Clough and Bent (1998)]. proPLS::GFP plants were generated using the 1.5-kb PLS promoter ([Casson et al., 2002]) fused to GFP in a wild-type background. p35S::GFP seedlings were obtained from Dr. Piers Hemsley, Durham University. […] Seedlings were scanned to create a digital image, and root lengths of the seedlings were measured using ImageJ. […]
CSLM images for propidium iodide and GFP were obtained using a Leica SP5 TCS confocal microscope as described previously ([Rowe et al., 2016]). proPLS::PLS:GFP, proPLS::GFP, and pro35S::GFP seedlings were grown for 7 days on Phytagel ½ MS10 medium before ∼25 mm of the root tip was removed and mounted in dH2O prior to imaging. […] For standard photomultiplier tubes, a laser power of 21% and a smart gain of 800–1000 mV were used, depending on the intensity of the fluorescence. […]

pls mutant = assay: Complementation of pls mutant by proPLS::PLS:GFP transgene; assay type: in vivo, Arabidopsis thaliana; conditions: single-copy proPLS::PLS:GFP in pls background
Excerpt: as §1, with “University. Seedlings of Arabidopsis thaliana ecotype C24 or Col-0, pls mutants, and transgenic PLS overexpressers, all from lab stocks, were grown on solid sterile half-strength (2.2 g/l) Murashige and Skoog medium (Sigma-Aldrich) containing 10 g/l sucrose (half-strength [½] MS10 medium) solidified with 2.5 g/l Phytagel (Sigma-Aldrich) in 90-mm Petri dishes (Sarstedt, Leicester, UK) at 21°C under a 16-h photoperiod as described previously ([Casson et al., 2002]; [Chilley et al., 2006]).” for “University.”

pls mutant primary root = assay: Root length of pls mutant under exogenous copper; assay type: in vivo, Arabidopsis thaliana; conditions: 0-50 μM CuSO4, 12 days, n = 18
Excerpt: as §1
Root length (n = 18 from samples grown on 3 independent plates) was measured after 12 days using ImageJ. […]

Substance | binding of ETR1:HA (ETR1:HA) | co-localization with RFP:HDEL (ER lumen) ([1]; proPLS::PLS:GFP plants) | co-localization with ER Tracker Red ([1]; proPLS::PLS:GFP stably transformed Arabidopsis) | transformants fully complementing pls mutant (pls mutant) | copper hypersensitivity of pls mutant (pls mutant primary root)
PLS:GFP: fusion protein of PLS with C-terminal GFP (MKPRLCFNFRRRSISPCYISISYLLVAKLFKLFKIH-{GFP}; cysteine pairing not given here) | ETR1:HA bound to PLS:GFP | co-localized with the ER lumen–targeted red fluorescent protein RFP:HDEL | co-localized with the ER marker dye ER-Tracker Red | four | 
copper |  |  |  |  | not copper hypersensitive
